Values joined by “and” are separate entries in the source; they are usually repeats but may differ in a detail not shown here. Equal values may be shown once.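 Method: 48-hour compound exposure of cells in 96-well plates, five concentrations, linear interpolation of endpoints. GI50 is the concentration that inhibits growth by half. TGI: total growth inhibition.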
How the values were obtained:
Assay in all cases: inhibition of tumour cell growth, NCI panel, 48 h
HS 578T breast = system: HS 578T breast
HT29 colon = system: HT29 colon
UACC-62 melanoma = system: UACC-62 melanoma
NCI-H460 lung = system: NCI-H460 lung
NCI-H522 lung = system: NCI-H522 lung
CAKI-1 renal = system: CAKI-1 renal
K-562 leukemia = system: K-562 leukemia
OVCAR-5 ovarian = system: OVCAR-5 ovarian
OVCAR-3 ovarian = system: OVCAR-3 ovarian
OVCAR-8 ovarian = system: OVCAR-8 ovarian

Structure (SMILES) | GI50 (HS 578T breast) [µM] | TGI (HS 578T breast) [µM] | GI50 (HT29 colon) [µM] | TGI (HT29 colon) [µM] | GI50 (UACC-62 melanoma) | TGI (UACC-62 melanoma) | GI50 (NCI-H460 lung) [µM] | TGI (NCI-H460 lung) [µM] | GI50 (NCI-H522 lung) [µM] | TGI (NCI-H522 lung) [µM] | GI50 (CAKI-1 renal) | TGI (CAKI-1 renal) [µM] | GI50 (K-562 leukemia) | TGI (K-562 leukemia) [µM] | GI50 (OVCAR-5 ovarian) [µM] | TGI (OVCAR-5 ovarian) [µM] | GI50 (OVCAR-3 ovarian) | TGI (OVCAR-3 ovarian) | GI50 (OVCAR-8 ovarian) | TGI (OVCAR-8 ovarian)
N#C/C(=C\c1ccc(Br)cc1)n1nnc2cc(F)c(F)cc21 | 2.71 | 8.3 | 1.85 | 3.62 | 1.46 µM | 3 µM | 1.96 | 3.98 | 1.35 | 3.25 | 1.37 µM | 2.79 | 2 µM | > 100 | 1.85 | 3.57 | 1.89 µM | 3.76 µM | 1.69 µM | 3.99 µM
Nc1nc(F)nc2c1ncn2C1OC(COP(=O)(O)O)C(O)C1O (stereo not drawn) | – | 379 | – | > 1250 | – | 247 µM | – | 616 | – | 740 | – | > 68.4 | – | 1070 | – | 617 | – | 546 µM | – | 196 µM
C=C1C(=O)O[C@H]2[C@H]1CC/C(COC(=O)N[C@@H](Cc1c[nH]c3ccccc13)C(=O)OC)=C\CC[C@@]1(C)O[C@@H]21 | 4.62 | 28.5 | 1.44 | 3.04 | 1.38 µM | 2.84 µM | 3.4 | 12.6 | 1.31 | 2.84 | 1.2 µM | 2.89 | 0.362 µM | 5.18 | 2.02 | 4.92 | 1.24 µM | 2.69 µM | 2.62 µM | 10.3 µM
CC(=O)O[C@H]1C(=O)[C@@]2(C)[C@H]([C@H](OC(=O)c3ccccc3)[C@]3(O)C[C@H](OC(=O)[C@H](OC(=O)CCC(=O)OC4CCC(S/N=C(N)/N=C(\N)N(C)C)CC4)[C@@H](NC(=O)c4ccccc4)c4ccccc4)C(C)=C1C3(C)C)[C@]1(OC(C)=O)CO[C@@H]1C[C@@H]2O (stereo partly drawn) | 0.01 | – | < 0.005 | > 50 | < 0.0155 µM | > 25.5 µM | 0.0069 | > 27.7 | 0.00553 | 0.0373 | 1.27 µM | > 50 | 0.00692 µM | > 50 | 0.0272 | > 50 | 0.0112 µM | > 50 µM | 0.0221 µM | > 50 µM
CCOC(=O)c1ccc(C(O)CC(=O)OC(C)(C)C)[nH]1 (stereo not drawn) | 48.3 | > 100 | 59 | > 100 | 26.5 µM | 81.3 µM | 35.9 | > 100 | 9.5 | 25.9 | 21.6 µM | 87.2 | 52.6 µM | > 100 | 32.3 | > 100 | 28.5 µM | 68.2 µM | 56.7 µM | > 100 µM
COc1ccc2c(c1)/C(=C/c1c(-c3ccc(C)cc3)nc3sc(C)cn13)C(=O)N2 | 19.8 | > 100 | 8.92 | > 100 | 13.1 µM | 32.5 µM | 6.36 | 56.2 | 13.5 | > 100 | 35.3 µM | > 100 | 4.95 µM | > 100 | 16.6 | 87.3 | 15.5 µM | > 100 µM | 12.4 µM | > 100 µM
COc1ccc2c(c1)C(=O)c1c-2c(N2CCN(C(=O)CN(C)C)CC2)nc2ccccc12 | 11.6 | 31.9 | 2.13 | 12.7 | 15.3 µM | 37.3 µM | 6.01 | 20.6 | 13.7 | 30.6 | 47.9 µM | > 100 | 9.17 µM | > 100 | 28.8 | 67.3 | 19.5 µM | 58.6 µM | 24.7 µM | > 100 µM
O=C1CN2CCC1C/C2=C\c1ccnc2c(Cl)cccc12 (stereo not drawn) | > 100 | > 100 | 42.6 | > 100 | > 100 µM | > 100 µM | 72.8 | > 100 | 53.5 | > 100 | 21 µM | > 100 | 32.2 µM | > 100 | > 100 | > 100 | > 100 µM | > 100 µM | 61.6 µM | > 100 µM
CCOC(=O)CCc1c(C)c2ccc(O)cc2oc1=O | – | > 100 | – | > 100 | – | > 100 µM | – | > 100 | – | > 100 | – | > 100 | – | > 100 | – | > 100 | – | > 100 µM | – | > 100 µM
COc1cc(C(=O)O)ccc1NC(=O)[C@@H]1N[C@@H](CC(C)(C)C)[C@](C#N)(c2ccc(Cl)cc2F)[C@H]1c1cccc(Cl)c1F | 3.9 | 15.8 | 3.39 | 22.2 | 0.0909 µM | 2.13 µM | 0.077 | 2.27 | 2.72 | 10.8 | 0.1 µM | 7.01 | 4.15 µM | > 100 | 7.23 | 24.9 | 1.77 µM | 4.3 µM | 4.08 µM | 23 µM
CNC(=O)c1ccc(Nc2nc(OC3CCCC3)c3c(-c4ccc5nc(C)oc5c4)c[nH]c3n2)c(OC)c1 | 31.5 | > 100 | 4.99 | > 100 | 2.58 µM | > 100 µM | 0.119 | > 100 | 1.67 | > 100 | 0.448 µM | > 100 | 0.746 µM | > 100 | 64.2 | > 100 | 0.427 µM | > 44.6 µM | 0.6 µM | > 100 µM
CCN(CC)CCCC(C)N/C(c1cccc(OC)c1)=c1\c(=O)[nH]n(-c2c3ccccc3nc3ccccc23)c(=O)\c1=C(/NC(C)CCCN(CC)CC)c1cccc(OC)c1 (stereo not drawn) | 2.3 | 7.28 | 0.591 | 2.51 | 1.69 µM | 3.3 µM | 0.428 | 2.56 | 1.55 | 3.21 | 1.66 µM | 4.17 | 1.41 µM | 5.64 | 1.79 | 5.21 | 1.8 µM | 5.4 µM | 0.937 µM | 7.77 µM
O=C1OC2(c3ccccc31)c1cc(I)c(O)c(I)c1Oc1c2cc(I)c(O)c1I | – | > 100 | – | > 100 | – | > 100 µM | – | > 100 | – | 78.5 | – | 85 | – | > 100 | – | > 100 | – | > 100 µM | – | > 100 µM
C=C1C(=O)O[C@H]2[C@H]1CC/C(Cn1cc(Cn3ccc4cc(Cl)ccc43)nn1)=C\CC[C@@]1(C)O[C@@H]21 | 2.5 | 6.68 | 1.83 | 4.46 | 1.41 µM | 2.78 µM | 3.27 | 10.3 | 1.26 | 2.87 | 1.24 µM | 2.5 | 0.649 µM | 3.1 | 1.65 | 3.54 | 1.48 µM | 2.83 µM | 1.66 µM | 3.57 µM
Cc1c(N(C(=O)c2cc(-c3cc(Cl)ccc3C(=O)N3Cc4ccccc4C[C@H]3CN3CCOCC3)n(C)c2C)c2ccc(O)cc2)cc(C#N)n1C | 19 | 75.3 | 18.7 | > 100 | 20.6 µM | > 100 µM | 31.3 | > 100 | 20.4 | > 100 | 6.35 µM | > 100 | 10.8 µM | > 100 | 44.9 | > 100 | 11 µM | > 100 µM | 55.8 µM | > 100 µM
OCC1OC(O)C(N=Cc2ccc3c(c2)OCO3)C(O)C1O (stereo not drawn) | – | > 100 | – | > 100 | – | > 100 µM | – | > 100 | – | > 100 | – | > 100 | – | > 100 | – | > 100 | – | > 100 µM | – | > 100 µM
O=C(Nc1nc(-c2ccc(Cl)cc2)cs1)c1ccc(O)c(O)c1 | 9.45 | 53.9 | 11.6 | 24.7 | 4.24 µM | 18.1 µM | 3.26 | 12.2 | 1.8 | 9.97 | 3.02 µM | 10.9 | 3.46 µM | 20 | 14.7 | 36.1 | 5.03 µM | 18.2 µM | 4.14 µM | 16.7 µM
CCC[C@H](Nc1nc(-c2ccc(NC(=O)NCC)c(OC)c2)ncc1C)c1cccnc1 | 0.0345 | – | 0.0361 | 16.9 | 0.0572 µM | > 48.5 µM | 0.0357 | 13.3 | 0.0345 | 0.868 | 0.222 µM | 24 | 0.031 µM | 16.4 | 0.0579 | > 100 | 0.0221 µM | 0.0492 µM | 0.0369 µM | 14.6 µM
COc1cc(-c2ccc(-[n+]3nc(-c4ccc([N+](=O)[O-])cc4)nn3-c3ccc([N+](=O)[O-])cc3)c(OC)c2)ccc1-[n+]1nc(-c2ccc([N+](=O)[O-])cc2)nn1-c1ccc([N+](=O)[O-])cc1 | 1.93 | 5.07 | 3.43 | 15.2 | 22 µM | > 82.8 µM | 3.02 | 11.1 | 0.672 | 7.71 | 15.1 µM | 48.5 | 3.39 µM | > 44.6 | 12.4 | 45.5 | 9.77 µM | 38.2 µM | 12.9 µM | > 71.5 µM
CC1=Cc2cc3[n-]c(cc4nc(cc5[n-]c(cc1n2)c(C)c5CCC(=O)O)C(CCC(=O)O)=C4C)cc3C.[Cu+2] | 38.7 | > 100 | > 100 | > 100 | > 1 µM and 6.04 µM | > 1 µM and 15.8 µM | > 100 | > 100 | 8.84 | 30.4 | > 1 µM and 23.2 µM | > 68.2 | > 1 µM and 13.6 µM | > 60.6 | > 100 | > 100 | > 1 µM and 26.5 µM | > 1 µM and 92.3 µM | > 1 µM and 19.6 µM | > 1 µM and 54.7 µM
COc1cc(/C=C/C(=O)CC(=O)/C=C/c2ccc(OC(=O)CCNC34CC5CC(CC(C5)C3)C4)c(OC)c2)ccc1OC(=O)CCNC12CC3CC(CC(C3)C1)C2 | 2.85 | 9.17 | 1.75 | 3.2 | 3.5 µM | 13 µM | 2.5 | 6.33 | 4.27 | 16.1 | 2.51 µM | 9.33 | 4.41 µM | > 100 | 4.34 | 16.8 | 4.09 µM | 21.9 µM | 3.71 µM | 13.4 µM
Nc1ccn(C2OC(COP(=O)(O)O)C(O)C2O)c(=O)n1 (stereo not drawn) | – | > 100 | – | > 100 | – | > 71.3 µM | – | > 27.8 | – | > 100 | – | > 100 | – | > 100 | – | > 100 | – | > 100 µM | – | > 100 µM
Fc1ccc(Nc2ccc3cc(OCCCN4CCOCC4)ccc3n2)cc1F | 3.06 | 9.2 | 2.06 | 5.47 | 1.99 µM | 4.94 µM | 2.93 | 8.74 | 2.15 | 5.37 | 3.71 µM | 25.6 | 2.78 µM | > 100 | 3.02 | > 100 | 7.03 µM | > 100 µM | 5.51 µM | > 100 µM
O=C(/C=C/C12c3ccccc3C(c3ccccc31)C1C(=O)NC(=O)C12)c1ccco1 (stereo not drawn) | 4.16 | 30.2 | 2.28 | 5.06 | 2.16 µM | 4.9 µM | 1.8 | 3.98 | 1.84 | 3.75 | 3.74 µM | 14 | 2.19 µM | 12.5 | 3.15 | 10.7 | 2.47 µM | 5.8 µM | 3.12 µM | 12.5 µM
c1cncc(-c2cc(-c3cc(-c4cccnc4)n[nH]3)[nH]n2)c1 | – | > 100 | – | > 100 | – | > 100 µM | – | > 100 | – | > 100 | – | > 100 | – | > 100 | – | > 100 | – | > 100 µM | – | > 100 µM

— PubChem BioAssay (NCI)
